Source: patent US6875775B2, “Triphenylalkene derivatives and their use as selective estrogen receptor modulators” (Hormos Medical Oy LTD, priority 1999, dated 2005)
Like-named read-outs stand apart in the source and are kept apart here.

Experiments:
MCF-7 cells = assay: cells; assay type: cell-based; settings: for Maximal Cell Kill (% fraction of dead cells) / cytotoxicity at 10 µM: 10 μmol/l; for Maximal Agonism (% of E2) / Emax: maximal growth stimulus at any concentration, 4 days; for cytotoxicity at 10 µM / inhibition at 1 µM / Emax: Homo sapiens, MCF7, 96 h; for cytotoxicity at 10 µM: read-out: Maximal Cell Kill (% fraction of dead cells); for inhibition at 1 µM: read-out: Antagonism at 1 μM (% of full antagonism); for Emax: read-out: Maximal Agonism (% of E2); for Killing of MCF-7 cells at the highest investigated concentration (in words): 10 μM, compounds with weak hormonal activity
Protocol: Evaluation of Estrogenic and Antiestrogenic Properties of Compounds in MCF-7 Cell Growth Experiments in Vitro
For experiments involving hormone or anti-hormone treatment, the cells in exponential growth phase were precultivated in the absence of estradiol for one day. […] After the incubation period the medium was removed. The exposure to study drugs was started immediately by adding fresh medium with 5% stripped serum. Half of the cells were grown with estradiol, half without estradiol. Study compounds (dissolved in ethanol in 0.01 M concentration and diluted with the growth medium as appropriate) were added. The final concentrations of the compounds were 1, 10, and 100 nM, and 1 and 10 μM. The cells were incubated for four days.
This method allows evaluation of estrogenicity based on the ability of the compounds to stimulate the growth of the estrogen-dependent cells in the absence of estradiol.
Estrogenicity was estimated by comparing the maximal growth stimulus (at any concentration) of study compound as percent from growth stimulus by estradiol (100% stimulus). […] At high concentrations molecules may also show toxicity. Toxicity was estimated as the fraction of dead cells (i.e. 100% means that all cells have died during the exposure).

[1] = Overall hormonal profile summarised from Tables 2, 3 and 4
[2] = test system: DMBA-induced rat mammary gland cancer; assay: Antitumor activity in DMBA-induced rat mammary gland cancer model; assay type: in vivo; settings: 3 mg/kg p.o. daily for 5 weeks
Protocol: Estimation of Antitumor Activity in Vivo
Antitumor activity was estimated by using DMBA (dimethylbenz[a] anthracene) model. One single peroral dose of DMBA (12 mg) initiates mammary gland carcinogenesis. New compounds were administered for 5 weeks when palpable tumors appeared. Size of the tumors and number of new tumors were carefully estimated once a week until termination. The model has been described in detail by Kangas et al, 1986. The growth of the tumors was measured once a week. All tumors were classified according to their growth properties to progressing, stable and regressing ones. Disappeared tumors were separately calculated. The tumors were considered to be progressing, if the tumor volume grew more than 8-fold during the 5 weeks dosing period, and regressing if the tumor volume decreased to one fourth or less from the volume in the beginning. If tumor volume changed less or remained unchanged, the tumors were considered to be stable.

| Structure (SMILES) | cytotoxicity at 10 µM (MCF-7 cells; With estradiol (E2)) | cytotoxicity at 10 µM (MCF-7 cells; Without estradiol (E2)) | inhibition at 1 µM (MCF-7 cells; With estradiol (E2)) | Emax (MCF-7 cells; Without estradiol (E2)) | also measured |
| --- | --- | --- | --- | --- | --- |
| CCCCN(C)C(=O)CCCCCCCCCC[C@@H]1Cc2cc(O)ccc2[C@H]2CC[C@]3(C)[C@@H](O)CC[C@H]3[C@H]12 [ICI 164,384, reference compound] | – | – | – | – | Antagonism at 1 μM (% of full antagonism) (MCF-7 cells; With estradiol (E2)): 100 % of full antagonism; Maximal Cell Kill (% fraction of dead cells) (MCF-7 cells; With estradiol (E2)): 100 % fraction of dead cells; Maximal Cell Kill (% fraction of dead cells) (MCF-7 cells; Without estradiol (E2)): 100 % fraction of dead cells; Maximal Agonism (% of E2) (MCF-7 cells; Without estradiol (E2)): 9 % of E2 |
| ClCCOc1ccc(/C(=C(/CCCl)c2ccc(Cl)cc2)c2ccc(Cl)cc2)cc1 [No. 6, (E)-4-Chloro-1-[4-(2-chloroethoxy)phenyl]-1,2-bis(4-chlorophenyl)-but-1-ene] | 40% | 47% | 16% | 0% | – |
| OCC(O)COc1ccc(/C(=C(/CCCl)c2ccccc2)c2ccc(Cl)cc2)cc1 (stereo not shown) [No. 10, (E)-3-{4-[4-Chloro-1-(4-chlorophenyl)-2-phenyl-but-1-enyl]phenoxy}propane-1,2-diol] | 35% | 7% | 0% | 34% | Estrogenic and antiestrogenic action (in words) [1]: weak estrogenic and no antiestrogenic action |
| ClCCOCCOc1ccc(/C(=C(/CCCl)c2ccccc2)c2ccc(Cl)cc2)cc1 [No. 14] | – | – | – | – | Antagonism at 1 μM (% of full antagonism) (MCF-7 cells; With estradiol (E2)): 27 % of full antagonism; Maximal Cell Kill (% fraction of dead cells) (MCF-7 cells; With estradiol (E2)): 57 % fraction of dead cells; Maximal Cell Kill (% fraction of dead cells) (MCF-7 cells; Without estradiol (E2)): 10 % fraction of dead cells; Maximal Agonism (% of E2) (MCF-7 cells; Without estradiol (E2)): 12 % of E2 |
| Fc1ccc(/C(=C(\CCCl)c2ccccc2)c2ccc(OCCOCCCl)cc2)cc1 [No. 15] | – | – | – | – | Antagonism at 1 μM (% of full antagonism) (MCF-7 cells; With estradiol (E2)): 5 % of full antagonism; Maximal Cell Kill (% fraction of dead cells) (MCF-7 cells; With estradiol (E2)): 9 % fraction of dead cells; Maximal Cell Kill (% fraction of dead cells) (MCF-7 cells; Without estradiol (E2)): 82 % fraction of dead cells; Maximal Agonism (% of E2) (MCF-7 cells; Without estradiol (E2)): 74 % of E2 |
| OCCOc1ccc(C(=C(CCCl)c2ccccc2)c2ccc(OCCO)cc2)cc1 [No. 16, 2-(4-{4-Chloro-1-[4-(2-hydroxyethoxy)phenyl]-2-phenyl-but-1-enyl}phenoxy)1-ethanol] | – | – | – | – | Killing of MCF-7 cells at the highest investigated concentration (in words) (MCF-7 cells): kill MCF-7 cells (human breast cancer cells) effectively |
| OCCOc1cccc(/C(=C(/CCCl)c2ccccc2)c2ccccc2)c1 [No. 18, (Z)-2-[3-(4-Chloro-1,2-diphenyl-but-1-enyl)phenoxy]ethanol] | – | – | – | 30% | Estrogenic and antiestrogenic action (in words) [1]: weak estrogenic and no antiestrogenic action |
| ClCC/C(=C(\c1ccccc1)c1ccc(OCCn2ccnc2)cc1)c1ccccc1 [No. 21, (Z)-1-{2-[4-(4-Chloro-1,2-diphenyl-but-1-enyl)phenoxy]ethyl}-1H-imidazole] | 91% | 80% | 0% | 5% | – |
| CN(CCO)CCOc1ccc(/C(=C(/CCCl)c2ccccc2)c2ccccc2)cc1 [No. 22, (Z)-2-({2-[4-(4-Chloro-1,2-diphenyl-but-1-enyl)phenoxy]ethyl}methylamino)ethanol] | 41% | 15% | 12% | 1% | – |
| CN(C)CCOc1ccc(/C(=C(/CCCl)c2ccc(F)cc2)c2ccccc2)cc1 [No. 25, (Z)-(2-{4-[4-Chloro-2-(4-fluorophenyl)-1-phenylbut-1-enyl]phenoxy}ethyl)-dimethylamine] | – | – | – | – | Estrogenic and antiestrogenic action (in words) [1]: weak estrogenic and no antiestrogenic action |
| COc1ccc(/C(=C(\CCCl)c2ccc(Cl)cc2)c2ccc(OCCN(C)C)cc2)cc1 [No. 26, (Z)-(2-{4-[4-Chloro-2-(4-chlorophenyl)-1-(4-methoxyphenyl)but-1-enyl]phenoxy}-ethyl)dimethylamine] | – | – | – | – | Killing of MCF-7 cells at the highest investigated concentration (in words) (MCF-7 cells): kill MCF-7 cells (human breast cancer cells) effectively |
| COc1ccc(/C(=C(/CCCl)c2ccc(Cl)cc2)c2ccc(OCCN(C)C)cc2)cc1 [No. 27, (E)-(2-{4-[4-Chloro-2-(4-chlorophenyl)-1-(4-methoxyphenyl)but-1-enyl]phenoxy}-ethyl)dimethylamine] | – | – | – | – | Killing of MCF-7 cells at the highest investigated concentration (in words) (MCF-7 cells): kill MCF-7 cells (human breast cancer cells) effectively |
| COc1cccc(/C(CCCl)=C(/c2ccccc2)c2ccc(OCCN3CCCCC3)cc2)c1 [No. 28, (Z)-1-(2-{4-[4-Chloro-2-(3-methoxyphenyl)-1-phenylbut-1-enyl]phenoxy}-ethyl)piperidine] | 92% | 86% | 18% | 3% | – |
| COc1ccccc1/C(CCCl)=C(/c1ccccc1)c1ccc(OCCN2CCCCC2)cc1 [No. 30, (Z)-1-(2-{4-[4-Chloro-2-(2-methoxyphenyl)-1-phenylbut-1-enyl]phenoxy}-ethyl)piperidine] | 92% | 91% | 4% | 5% | – |
| CN(C)CCSc1ccc(/C(=C(/CCCl)c2ccccc2)c2ccccc2)cc1 [No. 32, (Z)-1-[4-(2-Dimethylaminoethylsulfanyl)phenyl]-1,2-diphenyl-4-chloro-but-1-ene] | 90% | 86% | 0% | 11% | Estrogenic and antiestrogenic action (in words) [1]: weak estrogenic and no antiestrogenic action |
| OCCCOc1ccc(/C(=C(/CCCl)c2ccccc2)c2ccccc2)cc1 [No. 35, (Z)-3-[4-(4-Chloro-1,2-diphenylbut-1-enyl)phenoxy]propan-1-ol] | – | – | – | 45% | – |
| OCCSc1ccc(/C(=C(/CCCl)c2ccccc2)c2ccccc2)cc1 [No. 36, (Z)-2-[4-(4-Chloro-1,2-diphenyl-but-1-enyl)-phenylsulfanyl]ethanol] | 37% | 17% | 13% | 8% | Estrogenic and antiestrogenic action (in words) [1]: weak estrogenic and no antiestrogenic action |
| ClCC/C(=C(\c1ccccc1)c1ccc(OCCN2CCCCC2)cc1)c1ccccc1Cl [No. 38, (Z)-1-(2-{4-[4-Chloro-2-(2-chlorophenyl)-1-phenylbut-1-enyl]phenoxy}-ethyl)piperidine] | 100% | 99% | 68% | 0% | – |
| Oc1cccc(/C(=C(\CCCl)c2ccccc2)c2ccc(OCCn3ccnc3)cc2)c1 [No. 39, (E)-3-{4-Chloro-1-[4-(2-imidazol-1-yl-ethoxy)phenyl]-2-phenyl-but-1-enyl}-phenol] | 78% | 68% | 17% | 0% | Killing of MCF-7 cells at the highest investigated concentration (in words) (MCF-7 cells): kill MCF-7 cells (human breast cancer cells) effectively |
| Oc1cccc(/C(=C(/CCCl)c2ccccc2)c2ccc(OCCn3ccnc3)cc2)c1 [No. 40, (Z)-3-{4-Chloro-1-[4-(2-imidazol-1-yl-ethoxy)phenyl]-2-phenyl-but-1-enyl}-phenol] | 46% | 63% | 3% | 0% | Killing of MCF-7 cells at the highest investigated concentration (in words) (MCF-7 cells): kill MCF-7 cells (human breast cancer cells) effectively |
| OCCNc1ccc(/C(=C(/CCCl)c2ccccc2)c2ccccc2)cc1 [No. 41, (Z)-2-[4-(4-Chloro-1,2-diphenyl-but-1-enyl)phenylamino]ethanol] | 47% | 0% | 10% | 54% | – |
| CCC(O)(CC)COc1ccc(/C(=C(/CCCl)c2ccccc2)c2ccccc2)cc1 [No. 45, (Z)-3-[4-(4-Chloro-1,2-diphenylbut-1-enyl)phenoxymethyl]pentan-3-ol] | 19% | 6% | 3% | 15% | – |
| CCC(CO)Oc1ccc(/C(=C(/CCCl)c2ccccc2)c2ccccc2)cc1 (stereo not shown) [No. 46, (Z)-2-[4-(4-Chloro-1,2-diphenylbut-1-enyl)phenoxy]butan-1-ol] | 51% | 15% | 23% | 18% | – |
| CC/C(=C(\c1ccccc1)c1ccc(OCCN(C)C)cc1)c1ccccc1 [Tamoxifen, reference compound] | – | – | – | – | Disappeared tumors (per cent of total tumor number) [2]: 0%; Growing tumors (per cent of total tumor number) [2]: 36%; Regressing tumors (per cent of total tumor number) [2]: 8%; Stable tumors (per cent of total tumor number) [2]: 56% |
| CN(C)CCOc1ccc(/C(=C(/CCCl)c2ccccc2)c2ccccc2)cc1 [Toremifene, reference compound] | – | – | – | – | Disappeared tumors (per cent of total tumor number) [2]: 10%; Growing tumors (per cent of total tumor number) [2]: 31%; Regressing tumors (per cent of total tumor number) [2]: 11%; Stable tumors (per cent of total tumor number) [2]: 51% |
